One test deals with HAP1 cells. As to the kind of experiment: Cell viability assay of wild-type versus mutagenized drug-resistant cells. The class given is cell-based, human. As to conditions: for Drug sensitivity of colonies after Cas9/sgRNA targeting of the resistance hot spot: HAP1 cells, sgRNAs at XPO1 C528, KIF11 D130/A133, ERCC3 S162/Y163, NHEJ repair, 4 drug concentrations for selection; for Drug sensitivity of parental cells with a major protein variant reinstalled by CRISPR/Cas9-mediated HDR: XPO1 C528S,E529V,Q530H,K531I, KIF11 L132del, ERCC3 V166_K167insL in native locus; for Drug sensitivity of HDR-edited cells carrying NAMPT mutations: NAMPT mutations reinstalled in native locus of parental cells by CRISPR-induced HDR; for Drug sensitivity of surviving colonies after tiling library transduction and drug selection: HAP1 Cas9 cells, FDA_target subpool B with bortezomib 14 days, or investigational library D with KPT-9274. Here is the method: Cells were transfected with the Neon Electroporation System after resuspension in Buffer R. DNA plasmids expressing the spCas9 or asCpf1 endonuclease and guiding RNA were added to a concentration of 37.5 ng/μL per plasmid and electroporated at 1,400-1,475V with 3 pulses of 10 ms. Two to three days after transfection, cells were treated with the respective drug to select for resistance over 7-14 days. Colonies were imaged with an IncuCyte© ZOOM (Essen Bioscience).
For HDR, a 123-134 bases long ssDNA oligonucleotide (850 ng) was added to the electroporation mixture in addition to the respective sgRNA and spCas9 expressing plasmids. Two days after electroporation, cells were treated with respective drugs for 5 days before imaging with an IncuCyte© ZOOM (Essen Bioscience). Following imaging, the HDR-template transfected cells were grown under drug selection for an additional week before any further experiments were performed.
Cell viability assays were performed by plating 3,000 HAP1, 5,000 HCT 116 or HL-60 cells in 96-well plates containing DMSO or a dilution of the test compound. Cells were incubated for 72 hours at 37° C. and 5% CO2. Cell viability was then assessed with the CellTiter 96® AQueous Non-Radioactive Cell Proliferation Assay (Promega) and colorimetric signals were measured with a Safire2™ (TECAN). Assays were performed in triplicate and each experiment was repeated at least once. Obtained values were adjusted with the background signal and divided by the DMSO control. Relative data values were then visualized and analyzed using a log-based 4 parameter model (GraphPad Prism).
For single guide drug resistance validation assays, 125.000 cells were transfected with Cas9 and the individual sgRNAs using the Neon Electroporation system as described above and plated into 6-well plates. Cells were treated 2-3 days after transfection with the respective compound for a period of 5-7 days, the medium was regularly refreshed and dead cells were washed away before imaging confluency using a live cell analysis system (Essen Bioscience, IncuCyte ZOOM®).

Test [1] relates to HAP1 cells stably expressing spCas9 or asCpf1. Nature of the test: CRISPR mutagenesis scanning drug-target identification screen with tiling sgRNA/crRNA libraries. Type of test: cell-based, human. As to conditions: 30 nM bortezomib, 300 nM KPT-9274 or 2 μM selinexor for 2 weeks. Here is the method: FastQ files obtained after MiSeq sequencing were demultiplexed with the MiSeq Reporter software (Illumina). Demultiplexed and paired reads were trimmed, filtered and then aligned to the reference amplicon in Geneious (v9, Biomatters). To obtain haplotypes present in drug-resistant samples, bam files were analyzed with the CrispRVariants package run in RStudio by defining a 35-50 bp spanning region across the endonuclease cut site, as defined by pre-analysis of localized variants within Geneious. For this purpose, the CrispRVariants “readtotarget” input was run with parameters “upstream.snv” (30) and “downstream.snv” (15) on corresponding paired end sequencing reads to allow for haplotype determination. Haplotype nucleotide sequences were extracted with a small script. Nucleotide sequences were then visualized and mapped to the reference in Geneious v9 (Biomatters) and amino acid variants were determined. For visualization of the spectra of single nucleotide variants, NGS reads were aligned to the reference gene. Nucleotide occurrence frequencies were then determined in R on the aligned NGS reads using the deep SNV Bioconductor package. Sequences containing sgRNA/crRNAs from the lentiviral screens were trimmed from adapter sequences. Individual sgRNA/crRNA sequencing reads were then aligned to the pLCKO-U6-sgRNA vector within Geneious, counted with MaGeCK^18 and visualized in GraphPad Prism.
HAP1 cells stably expressing spCas9 or asCpf1 were resuspended in supplemented IMDM containing 8 μg/mL polybrene and transduced with lentiviral particles containing the desired sgRNA/crRNAs at a MOI of 0.25 (coverage of 5,000× per sgRNA for spCas9) or 0.35 (coverage of 15,000× per crRNA for asCpf1) by spinfection in 12-well plates. The next day cells were transferred to T150 cell flasks and selected with 1 μg/mL puromycin. Then 4 million (ispinesib/selinexor) or 10 million (KPT-9274/bortezomib) cells were harvested for DNA extraction and the remaining cells were treated for a period of 2 weeks with 8 nM ispinesib, 30 nM bortezomib, 300 nM KPT-9274 or 2 μM selinexor. […]

As to `CC(C)[C@]12O[C@H]1[C@@H]1O[C@]13[C@]1(O[C@H]1C[C@H]1C4=C(CC[C@@]13C)C(=O)OC4)[C@@H]2O` [triptolide], in the test on HAP1 cells, the “Drug sensitivity of colonies after Cas9/sgRNA targeting of the resistance hot spot” value is “resistant” and the “Drug sensitivity of parental cells with a major protein variant reinstalled by CRISPR/Cas9-mediated HDR” value (shortened to “Drug sensitivity … by CRISPR/Cas9-mediated HDR”) is “resistant”.

With `O=C(/C=C/c1cccnc1)NCCCCC1CCN(C(=O)c2ccccc2)CC1` [FK866], in the test on HAP1 cells, the “Drug sensitivity of HDR-edited cells carrying NAMPT mutations” value is given as “cross-resistant”. Moreover, the “Drug sensitivity of the original KPT-9274 resistant cell pool” value in the test on HAP1 cells (cell pool surviving the library D mutagenesis screen with KPT-9274, compared to wild-type) is reported as “cross-resistant”.

In the case of `Cc1ccc(C(=O)N(CCCN)[C@@H](c2nc3cc(Cl)ccc3c(=O)n2Cc2ccccc2)C(C)C)cc1` [ispinesib], in the test on HAP1 cells, the “Drug sensitivity of colonies after Cas9/sgRNA targeting of the resistance hot spot” value is “resistant” and the “Drug sensitivity … by CRISPR/Cas9-mediated HDR” value is reported as “resistant”.

Consider `Nc1ccc(/C=C/C(=O)NCc2cc3cc(-c4ccc(C(=O)N5CCC(F)(F)CC5)cc4)cc(-c4ccc(F)cc4)c3o2)cn1` [KPT-9274], for which, in test [1], the “Target gene identified by enriched guide RNAs and resistance mutations” value (from here on “Target gene identified”) is reported as “NAMPT”. Besides, in the test with HAP1 cells, the “Drug sensitivity of surviving colonies after tiling library transduction and drug selection” value is given as “resistant”; the “Drug sensitivity of HDR-edited cells carrying NAMPT mutations” value is recorded as “resistant”.

Turning to `O=C(/C=C\n1cnc(-c2cc(C(F)(F)F)cc(C(F)(F)F)c2)n1)NNc1cnccn1` [selinexor], the “Target gene identified” value in test [1] is recorded as “XPO1”. Further, in the test on HAP1 cells (HAP1 AsCpf1 cells, 10 genes, 1,100 crRNAs, selinexor 2 μM), the “Drug sensitivity of colonies after AsCpf1 tiling crRNA library and drug selection” value is listed as “resistant”. Besides, in the test on HAP1 cells, the “Drug sensitivity of colonies after Cas9/sgRNA targeting of the resistance hot spot” value is given as “resistant” and the “Drug sensitivity … by CRISPR/Cas9-mediated HDR” value is reported as “resistant”.

Turning to `CC(C)C[C@H](NC(=O)[C@H](Cc1ccccc1)NC(=O)c1cnccn1)B(O)O` [bortezomib], the “Target gene identified” value in test [1] was “PSMB5”. In addition, in the test on HAP1 cells, the “Drug sensitivity of surviving colonies after tiling library transduction and drug selection” value was “resistant”.
